Data set [1] relates to RAW264.7 cells. The data set can be described thus: Cytotoxicity on RAW264.7 cells: cell survival rate (trypan blue) and total cell number. The format is cell-based. To be noted: after 48 hours. How it is done: In this example, cytotoxicity of DTCM glutarimide on RAW264.7 cells was evaluated, based on cell survival rate and cell growth rate.
The RAW264.7 cells were seeded on plastic dishes at 1×10^4 cells/ml in DMEM medium containing 10% FBS, to which DTCM glutarimide-C12 was added at the concentration of 0, 0.1, 0.3, 1.0, 3.0 or 10.0 μg/mL to the media. After 24 hours or 48 hours of culture, numbers of total cells were counted using hemacytometer, and numbers of living cells were counted using trypan blue dye exclusion assay.

Data set [2] deals with RAW264.7 cells. The data set can be described thus: Inhibition of synthesis of DNA, RNA and protein (3H-thymidine, uridine, leucine incorporation). The format is cell-based. To be noted: concentrations up to 10.0 μg/mL, 6 hours + 1 hour label. How it is done: In this example, the cytotoxicity of DTCM glutarimide on RAW264.7 cells was evaluated, based on the inhibition of synthesis of DNA, RNA and protein.
After RAW264.7 cells were cultured under the same conditions as in (2) with the media supplemented with DTCM glutarimide-C12 at concentrations (0, 0.1, 0.3, 1.0, 3.0 and 10.0 μg/mL) for 6 hours, ^3H-labeled 0.1% thymidine, 0.1% uridine and 0.1% leucine were added to the media and the cells were further cultured for 1 hour. The cells were recovered and radioactivity of TCA-insoluble fractions was measured by using a liquid scintillation counter. The counts obtained at the DTCM glutarimide-C12 concentrations were normalized by setting to 100 the count obtained without addition of DTCM glutarimide-C12 in a control experiment and relatively plotted in the graph shown in FIG. 3.

Another data set relates to NO production. The data set can be described thus: NO production by LPS-activated macrophages (Griess reaction). The format is cell-based. To be noted: RAW264.7 cells. How it is done:
After RAW264.7 cells were cultured under the same conditions as in (2) with the media supplemented with DTCM glutarimide-C12 at concentrations (0, 0.1, 0.3, 1.0 and 3.0 μg/mL) for 2 hours, 3.0 μg/mL of LPS was added to the media and the cells were further cultured for 20 hours. Then, NO production amounts were measured by Griess reaction and plotted against the respective DTCM glutarimide-C12 concentrations (the bar graph in FIG. 4).
In general terms: Nitrite, measured by Griess reagent, commonly stands in for NO production.

In data set [3] the test system is RAW264.7 cells. The data set can be described thus: Living cell count by MTT method in LPS-stimulated cells. To be noted: all concentrations 0.1-3.0 μg/mL, 20 hours. The format is cell-based.
The test system of another data set is iNOS. The data set can be described thus: iNOS expression in macrophage activation (Western blotting). The format is cell-based. To be noted: RAW264.7 cells, LPS. The protocol:
RAW264.7 cells were activated under the same conditions as in (4), the cells were recovered and proteins were extracted from the cells by a routine method. Western blotting was conducted, using an anti-iNOS antibody (Santa Cruz Biotechnology) and an anti-α-tubulin antibody (Sigma Aldrich Japan) at the dilution ratio of 1/3000.
On the technique in general: In western blotting, separated proteins are transferred to a membrane and probed.

In another data set the test system is COX-2. The data set can be described thus: COX-2 expression in macrophage activation (Western blotting). The format is cell-based. To be noted: RAW264.7 cells, LPS. The protocol:
RAW264.7 cells were activated under the same conditions as in (4), the cells were recovered, proteins were extracted from the cells in a routine method, and Western blotting was conducted using an anti-COX-2 antibody (BD Bioscience) and an anti-α-tubulin antibody (Sigma Aldrich Japan) at the dilution ratio of 1/3000.

The subject of another data set is IL-6. The data set can be described thus: IL-6 production by macrophage activation (ELISA). The format is cell-based. To be noted: RAW264.7 cells, LPS. How it is done:
RAW264.7 cells were activated under the same conditions as in (4), the cells were recovered, proteins were extracted from the cells by a routine method. An ELISA was conducted using 96-well polystyrene microplates onto which the anti-IL-6 antibody had been immobilized. […] The detected concentrations of IL-6 per 10^6 cells were plotted in FIG. 9.
For orientation: ELISA stands for enzyme-linked immunosorbent assay.

In a further data set the test system is NF-κB. Description: DNA binding ability of NF-κB (gel shift assay). The format is cell-based. To be noted: RAW264.7 cells. The protocol: Next, under the same conditions as in (2) above, RAW264.7 cells were cultured with the media supplemented with DTCM glutarimide-C12 at concentrations (0, 0.1, 0.3, 1.0 and 3.0 μg/mL) for 2 hours, to which 3.0 μg/mL of LPS was added, and the cells were further cultured for 30 minutes. Then, nuclear extracts were prepared by a routine method, and a gel shift assay was conducted with using 3 μL of a ^32P-labeled probe.
The probe was prepared as follows. First, 4 μL of 1.75 μmol/mL oligonucleotide (Promega Inc.) (5′-[…]-3′; SEQ ID N0.1), 4 μL of 10×T4 PNK buffer (Takara) and 10 μL of nucleotide free water were mixed, to which 2 μL of [γ-^32P]-ATP (Amarsham Corp.) was added, and incubated at 37° C. for 10 minutes. The reaction was then terminated by addition of 80 μL of TE buffer (10 mM Tris-HCl:1 mM EDTA=1:1). 100 μL of the reaction solution was loaded onto a Nick Column (Amersham Corp.) which had been prepared by removing the filled TE buffer and washing with distilled water, 400 μL of distilled water was loaded, and the eluate from the column was recovered in a 1.5 mL Eppendorf tube. Additional 400 μL of distilled water was loaded, and the fraction eluted again from the column was recovered in the 1.5 mL Eppendorf tube. The elute thus obtained was used as the labeled DNA probe. […]

For data set [4], the system named is murine bone marrow-derived macrophages. The data set can be described thus: Toxicity on murine bone marrow-derived macrophages (trypan blue dye exclusion). The format is cell-based, mouse. The protocol:
An 8 week-old ICR mouse (male, purchased from Charles River) sacrificed by cervical dislocation was dissected under sterile conditions to isolate femora and […] from both legs. Medullary cavities were washed with α-MEM several times using a 21G needle attached to a 1 mL syringe. The fluid (α-MEM) after washing was filtrated through a nylon mesh (330 mesh) to remove unnecessary cells, and myelocytes were isolated. The myelocyte suspension in α-MEM thus obtained was diluted to 1.25 to 3.75×10^6 cell/mL. To 80 mL of the myelocyte suspension, 80 μL of hM-CSF (Wako Pure Chemical) at 10 μg/mL prepared with PBS containing 0.1% BSA was added (final concentration 10 ng/mL). The cells thus prepared were seeded onto 24-well plates (Corning Inc.) by 500 μL to 1 mL per well, and cultured at 37° C. under 5% CO2 for 2 days. Then, unattached cells were washed away with α-MEM, fresh α-MEM containing 10 ng/mL of hM-CSF was added, and the attached cells thus obtained were used as the murine bone marrow-derived macrophages.
The murine bone marrow-derived macrophages thus prepared were seeded onto 24-well plates (Corning Inc.) by 1 mL each (1.25 to 3.75×10^6 cell/mL). To each of the wells, DTCM glutarimide-C12 at respective concentrations of 1.0, 3.0, 10.0 and 30.0 μg/mL was added, and all the experimental groups were cultured at 37° C. under 5% CO2. The control group was cultured under the same condition but without addition of DTCM glutarimide-C12.
The cells in the experimental groups were detached using a cell scraper and dissolved in α-MEM at 24 hours, 48 hours and 72 hours after the addition of DTCM glutarimide-C12. Then 1 mL of the cell suspensions were recovered in fresh Eppendorf tubes. […] 10 μL of the cell suspensions was put onto a hemacytometer (Erma Inc.) and total cells and dead cells were counted under a microscope at 100× magnification. In hemacytometric counting, approximately 100 cells were counted per one visual field, and the cell survival rates obtained in four visual fields were averaged. The cell survival rate (%) was calculated according to the following formula. […]

The test system is the same in data set [5]. Description: RANKL-induced osteoclast differentiation of murine bone marrow-derived macrophages (TRAP staining). The format is cell-based, mouse. To be noted: 0.3, 1.0 and 3.0 μg/mL, RANKL 100 ng/mL, 5 days. How it is done: The primary murine bone marrow-derived macrophages prepared in Example (10) were plated onto 24-well plates (Corning Inc.) by 500 μL each (1.25 to 3.75×10^6 cell/mL). Then 5 μL of DTCM glutarimide-C12 was added to each of the wells to the final concentrations of 0, 0.3, 1.0 and 3.0 μg/mL. All the experimental groups of plates were cultured at 37° C. under 5% CO2 for 2 hours. hRANKL (Wako Pure Chemical) at 10 μg/mL prepared in PBS containing 0.1% BSA was then added by 5 μL each (final concentration 100 ng/mL), and culture was continued. RANKL has been known as a factor to induce osteoclasts differentiation of macrophages etc. (Kobayashi et al. Crit. Rev Eukaryot Gene Expr. 19(1), 61-72, 2009). The control group of plates was cultured under the same condition but without RANKL and DTCM glutarimide.
After 5 days of culture, the media were removed, and the cells were washed by PBS. 250 μL each of 3.5% paraformaldehyde was added to the wells to fix the cells for 5 minutes, and the fixative was washed away with PBS. […] Following an addition of 250 μL of PBS, the plates were observed under a microscope and the number of mature osteoclasts was counted in the entire visual field by regarding TRAP-positive cell having three or more fused nuclei as the mature osteoclast as it is known to be TRAP-positive.

The subject of the next data set is F9 cells. The data set can be described thus: Survival rate and growth of F9 cancer cells. The format is cell-based, murine. How it is done:
F9 cells derived from murine embryonic tumor cells (purchased from RIKEN Tsukuba Institute BioResource Center, Cell Engineering Division) were plated onto plastic dishes at 1×10^4 cell/mL in DMEM medium containing 15% FBS. DTCM glutarimide-C12 was then added at the concentration of 0, 0.1, 0.3, 1.0, 3.0, 10.0 or 30.0 μg/mL in the culture media, and were cultured for 24, 48 or 72 hours. By following the same method as described in “Measurement of Cell Survival Rate by Trypan Blue Staining” in Example (10), the survival rates of cells were measured. Also, suspensions of the cultured cells were similarly prepared and the numbers of cells in the suspensions were counted by Coulter Counter (Beckman Coulter Inc.) to evaluate cell growth.

[6] abbreviates: 0.1-3.0 μg/mL, 2 hours pretreatment, LPS 3.0 μg/mL, 20 hours.
Setting [7] is: 10 μg/mL, positive control, LPS.

In the case of `CCCCCCCCCCCCSC(=O)CC1CC(=O)NC(=O)C1` [DTCM glutarimide-C12], the “total cell number (cell growth)” value in the data set with RAW264.7 cells [1] (concentrations up to 1.0 μg/mL) was “no suppression of cell growth was detected”. In addition, the “cell survival rate (living cell number/total cell number)” value in the data set on RAW264.7 cells [1] (concentrations up to 3.0 μg/mL) is “no cell killing effect was detected”. In the data set on RAW264.7 cells [2], the “inhibition of synthesis of DNA, RNA and protein” value is “no significant inhibitory activity”. Also, the NO production result in the data set with NO production (setting [6]) is on record as “significantly suppressed this NO production in a concentration-dependent manner”. The “numbers of living cells (MTT), cell growth” value in the data set on RAW264.7 cells [3] is on record as “did not affect the cell growth”. The iNOS expression entry with iNOS (0.1-3.0 μg/mL) is “prominently suppressed this iNOS expression in a concentration-dependent manner”. Also, in the data set with COX-2 (0.1-3.0 μg/mL), the COX-2 expression entry is “prominently suppressed this COX-2 expression in a concentration-dependent manner”. The IL-6 production entry in the data set on IL-6 (concentrations below 3.0 μg/mL) is given as “did not affect this IL-6 production”. Moreover, in the data set on NF-κB (concentrations below 3.0 μg/mL, LPS 30 minutes), the “DNA binding ability of NF-κB” value was “did not suppress the DNA binding ability of NF-κB”. Moreover, the survival rate result in [4] (3.0 μL groups, regardless of culture time (24, 48, 72 hours)) is listed as “more than 80%”; in [4] (10.0 and 30.0 μg/mL groups, regardless of culture time) it was “reduced”. Moreover, in [4] (concentrations up to 3.0 μL), the “toxicity on murine myelocyte-derived macrophages” value is recorded as “does not exhibit toxicity”. Besides, the number of osteoclasts entry in data set [5] is “significantly reduced”. Moreover, the “cell survival rate of F9 cells” value with F9 cells (0.1-30.0 μg/mL, 24, 48 or 72 hours, depending on concentration) was “significantly reduced”. In addition, in the data set on F9 cells (0.1-30.0 μg/mL, 24-72 hours, versus group without addition), the “cell growth of F9 cells” value is “suppressed”. In addition, the “cell survival rate of F9 cells, 72-hour versus 24-hour and 48-hour culturing” value in the data set with F9 cells (10 or 30 μg/mL) was “significantly reduced cell survival rate”.

On to `CCCCCCSC(=O)CC1CC(=O)NC(=O)C1` [DTCM glutarimide-C6], for which the NO production result with NO production (setting [6]) is given as “suppresses NO production”; with NO production (0.1-3.0 μg/mL, 2 hours pretreatment, LPS 3.0 μg/mL, 20 hours, listed as DTCM glutarimide-C16) it was “almost the same results”.

On to `O=C(NC1=CC(=O)[C@H]2O[C@H]2[C@H]1O)c1ccccc1O` [(−)-DHMEQ, reference compound], for which the NO production result in the data set on NO production (setting [7]) is on record as “NO expression is suppressed”. The iNOS expression result in the data set on iNOS (10 μg/mL, control) is “iNOS expression is suppressed”. Also, the COX-2 expression result with COX-2 (10 μg/mL, positive control) was “COX-2 expression is suppressed”. In addition, the IL-6 production result with IL-6 (10 μg/mL, positive control) is reported as “IL-6 production is suppressed”. The “activity of NF-κB (DNA binding)” value in the data set on NF-κB (setting [7]) is reported as “the activity of NF-κB is suppressed”.
